Assay results taken from patent US12240812B2, “Compound for inhibiting PGE2/EP4 signaling transduction inhibiting, preparation method therefor, and medical uses thereof” (Keythera (Suzhou) Pharmaceuticals Co. Ltd., priority 2019, dated 2025).
Like-named read-outs stand apart in the source and are kept apart here.

Assays:
[1] = Clearance assay in liver cells; assay type: in vitro ADME; details: cryopreserved mouse liver cells (hepatocytes); mouse (ICR/CD-1, male) cryopreserved liver cells, 0-120 min
Experimental: • Liver cell type: mouse • Product catalog: M00505 • Species: ICR/CD-1 • Sex: male • Source: BioreoclmationIVT Procedures: • 1. Preparation of working solution • a. 10 mM stock solutions of test compound and positive control were prepared in an appropriate solvent (DMSO). • b. 198 μL of 50% acetonitrile/50% water and 2 μL of 10 mM solution were mixed in a separate conical tube to obtain 100 μM test compound and positive control. • 2. Preparation of liver cells • a. The incubation medium and liver cell thawing medium were placed in a 37° C. water bath, and heated for at least 15 minutes before use. • b. A vial of cryopreserved liver cells was transferred from the storage, ensuring that the vial was kept at a low temperature until the thawing process was conducted. The cells were thawed by placing the vial in a 37° C. water bath and gently shaking the vial for 2 minutes. After completion of the thawing, the vial was sprayed with 70% ethanol and transferred to a biological safety cabinet. • c. The liver cells were transferred to a 50 mL conical tube containing the thawing medium by a large-bore pipette tip. The 50 mL conical tube was placed in a centrifuge and centrifuged at 100 g for 10 minutes. After completion of the centrifugation, the thawing medium was sucked out, and the liver cells were resuspended in enough medium to produce 1.5×10^6 cells/mL. • 3. Procedures of stability assay • a. 198 μL of liver cells were pipetted into each well of a 96-well uncoated plate. The plate was placed in an incubator to warm up the liver cells for 10 minutes. • b. 2 μL of 100 μM test compound or positive control was pipetted into each well of the 96-well uncoated plate to start the reaction. The plate was placed into the incubator at the set time point. • c. The contents of the wells were transferred in 25 μL of aliquots at the time points of 0, 15, 30, 60, 90 and 120 minutes. The aliquot was mixed with 6 volumes (150 μL) of acetonitrile containing internal standard IS (100 nM alprazolam, 200 nM caffeine, and 100 nM tolbutamide) to stop the reaction. The sample was vortex-mixed for 5 minutes, and centrifuged at 3220 g for 45 minutes. An aliquot of 100 μL of supernatant was diluted with 100 μL of ultrapure water, and the mixture was used for LC/MS/MS analysis. All incubations were performed in duplicate. • d. Data analysis
All calculations were performed using Microsoft Excel. The peak area was determined by the extracted ion chromatogram. The in vitro half-life (t½) of the parent compound was determined by the regression analysis of the compound disappearance percentage versus time curve.
The in vitro half-life (t½) was determined by the slope value k: t½=0.693/k
The in vitro t½ (in minutes) was converted to in vitro intrinsic clearance (CLint, in μL/min/0.5×10^6 cells) by using the following equation (average of repeated determinations): […]

[2] = system: PGE2/EP4 signal transduction in MCF7 cells; experiment: Determination of MCF7 cAMP (PGE2-stimulated, HTRF); assay type: cell-based; details: Homo sapiens
Experimental: • a) MCF7 cells (ATCC, 6000 cells/well/40 μl) were inoculated into a 384-well cell culture plate containing a medium (DMEM containing 10% FBS and 1×PS), and incubated overnight at 37° C. and 5% CO2. • b) The medium was removed, 40 μl/well of serum-free medium was added, and the cells were incubated at 37° C. and 5% CO2 for 5 hours. • c) The medium was replaced with 18 μL/well of HBSS buffer (Hepes 20 mM, 0.1% BSA, 500 μM IBMX). • d) The compound in DMSO was diluted (1/5 dilution, 9+0 dose). • e) 2 μL of the compound in d) was added to 98 μL of HBSS buffer. • f) 1 μL/well of the diluted compound in e) was added to the cells, with a final starting concentration of 1 μM, and the cells were incubated at 37° C. for 1 hour. • g) The cells were stimulated with 1 μL/well of PGE2 (10 mM DMSO stock solution) (final concentration: 10 nM, and DMSO final concentration: 0.2%), and incubated at 37° C. for 30 minutes. • h) After the incubation, 10 μL/well of cAMP-d2 and 10 μL/well of anti-cAMP were added, RT 1 h. • i) HTRF signals (665 nm/615 nm) were read on Envision. Data Analysis: • High control: 1 μM E7046 • Low control: DMSO • Background: 30 μL/well of lysis buffer+10 μL/well of anti-cAMP • Analytical data: original date—background Inhibition %: 100−100×(high control−analytical data)/(high control−low control)

[3] = system: CT-26 colorectal tumor; experiment: Inhibitory effect of compound 6 on CT-26 colorectal tumor in mouse; assay type: in vivo; details: for effect on the growth of CT-26 tumor: administered alone, different doses (compound 6: 10, 30 or 150 mg/kg p.o. once a day); for effect on the body weight of mouse: CT-26 colorectal cancer model, FIG. 2
Experimental: Efficacy study on allograft tumor: each 6-week-old female BALB/c mouse was subcutaneously inoculated with 1×10^6 CT26 cancer cells (National Experimental Cell Resource Sharing Service Platform, Resource Number 3111CCCC). When the tumor reached about 60 to 80 mm^3, the tumor-bearing mice were randomly grouped to the vehicle group or treatment group. Compound 6 was administered orally (p.o.) in a 0.5% MC suspension at a dose of 10, 30 or 150 mg/kg, once a day. The mice in the vehicle group were orally administered with distilled water every day, and the administration time was the same as that of the compound 6 group. The tumor volume and body weight were recorded 2 to 3 times a week.

[4] = system: CT-26 colorectal tumor; experiment: Compound 6 and anti-PD-1 antibody alone or in combination on CT-26 colorectal tumor in mouse; assay type: in vivo
Experimental: (§1) Efficacy study on allograft tumor: each 6-week-old female BALB/c mouse was subcutaneously inoculated with 1×10^6 CT26 cancer cells. When the tumor reached about 60 to 80 mm^3, the tumor-bearing mice were randomly grouped to the vehicle group or treatment group. When administered alone or in combination, compound 6 was administered orally (p.o.) in a 0.5% MC suspension at a dose of 30 or 150 mg/kg, once a day. When administered alone or in combination, anti-PD-1 antibody (Invivomab anti-mouse PD-1 (CD279), Abcam) was administered intraperitoneally at a dose of 5 mg/kg, once every 4 days, for a total of 3 times (Q4D×3). The mice in the vehicle group and PD-1 antibody-administered alone group were orally administered with distilled water every day, and the administration time was the same as that of the compound 6 group. The tumor volume and body weight were recorded 2 to 3 times a week.

[5] = system: EMT-6 breast tumor; experiment: Compound 6 and anti-PD-1 antibody alone or in combination on EMT-6 breast tumor in mouse; assay type: in vivo
Experimental: as §1, with “5×10^5 EMT-6” for “1×10^6 CT26”, “30” for “30 or 150”, “20 mg/kg on the first administration, and at a dose of 10 mg/kg on the following administrations” for “5 mg/kg,”, “5 days.” for “4 days, for a total of 3 times (Q4D×3).”

[6] = MCF7 cells, 10 nM PGE2 stimulation, cAMP HTRF, read-out: MCF7 cAMP IC50
[7] = BALB/c mice, CT26 allograft, FIG. 1

Compound | hepatocyte CLint at 1 µM [1] [µL/min/1e6 cells] | IC50 [2, 6] [nM] | further results
O=C(NC1(C23CCC(C(=O)O)(CC2)CC3)CC1)c1cccc2ccn(Cc3ccc(C(F)(F)F)cc3)c12 [Compound 9, 4-(1-(1-(4-(Trifluoromethyl)benzyl)-1H-indole-7-carboxamido)cyclopropyl)bicyclo[2.2.2]octane-1-carboxylic acid] | 20 | 1.1 | 
O=C(O)c1ccc(C2(NC(=O)c3cccc4ccn(Cc5ccc(C(F)(F)F)cc5)c34)CC2)cc1 [MF-766, 4-(1-(1-(4-(trifluoromethyl)benzyl)-1H-indole-7-carboxamido)cyclopropyl)benzoic acid, reference compound] | 12.5 |  | IC50 ([2]; MCF7, read-out: MCF7 cAMP IC50): 1.3 nM
O=C(NC1(C23CC(C(=O)O)(C2)C3)CC1)c1cncc2ccn(Cc3cc4ccccc4o3)c12 [Compound 25, 3-(1-(1-(benzofuran-2-ylmethyl)-1H-pyrrolo[3,2-c]pyridine-7-carboxamido)cyclopropyl)bicyclo[1.1.1]pentane-1-carboxylic acid] | 1.35 | 1.5 | 
C[C@H](NC(=O)c1c(C(F)F)nn(C)c1Oc1cccc(C(F)(F)F)c1)c1ccc(C(=O)O)cc1 [Compound E7046, (S)-4-(1-(3-(difluoromethyl)-1-methyl-5-(3-(trifluoromethyl)phenoxy)-1H-pyrazole-4-carboxamido)ethyl)benzoic acid, reference compound] | 20.1 |  | effect on the growth of CT-26 tumor [3, 7]: significant inhibitory effect; effect on the body weight of mouse [3]: no significant effect; IC50 ([2]; MCF7, read-out: MCF7 cAMP IC50): 11.2 nM
O=C(NC1(C23CC(C(=O)O)(C2)C3)CC1)c1cccc2ccn(Cc3cc4ccccc4o3)c12 [Compound 6, 3-(1-(1-(Benzofuran-2-ylmethyl)-1H-indole-7-carboxamido)cyclopropyl)bicyclo[1.1.1]pentane-1-carboxylic acid] | 2.9 | 1.1 | effect on the growth of CT-26 tumor [3, 7]: significant inhibitory effect; effect on CT-26 tumor growth compared with E7046 ([3]; BALB/c mice, CT26 allograft, at the same dose, FIG. 1): significantly better than E7046; effect on the body weight of mouse [3]: no significant effect; effect on the body weight of mouse ([4]; CT-26 model, compound 6 alone or in combination with anti-PD-1 antibody, FIG. 4): no significant effect; effect on the growth of CT-26 tumor in mouse ([4]; compound 6 30 or 150 mg/kg p.o. once a day, alone or in combination with anti-PD-1 antibody 5 mg/kg i.p. Q4Dx3, FIG. 3): good inhibitory effect; effect on the body weight of mouse ([5]; EMT-6 model, compound 6 alone or in combination with anti-PD-1 antibody, FIG. 6): no significant effect; effect on the EMT-6 breast tumor in mouse ([5]; compound 6 30 mg/kg p.o. once a day, alone or in combination with anti-PD-1 antibody (20 mg/kg first, then 10 mg/kg i.p. every 5 days), FIG. 5): good inhibitory effect
O=C(NC1(C23CC(C(=O)O)(C2)C3)CC1)c1cc(Cl)cc2ccn(Cc3ccc(-c4ccccc4)cn3)c12 [Compound 7, 3-(1-(5-Chloro-1-((5-phenylpyridin-2-yl)methyl)-1H-indole-7-carboxamido)cyclopropyl)bicyclo[1.1.1]pentane-1-carboxylic acid] | 34 | 0.13 | 
O=C(NC1(C23CC(C(=O)O)(C2)C3)CC1)c1cccc2ccn(Cc3ccc(C(F)(F)F)cc3)c12 [Compound 1, 3-(1-(1-(4-(Trifluoromethyl)benzyl)-1H-indole-7-carboxamido)cyclopropyl)bicyclo[1.1.1]pentane-1-carboxylic acid] | 7.1 | 2.4 | 
O=C(NC1(C23CC(C(=O)O)(C2)C3)CC1)c1cccc2ccn(Cc3cc4cc(F)ccc4o3)c12 [Compound 21, 3-(1-(1-((5-Fluorobenzofuran-2-yl)methyl)-1H-indole-7-carboxamido)cyclopropyl)bicyclo[1.1.1]pentane-1-carboxylic acid] | 1.93 | 0.9 | 
O=C(NC1(C23CC(C(=O)O)(C2)C3)CC1)c1cccc2ccn(Cc3ccc(-c4ccccc4)cn3)c12 [Compound 2, 3-(1-(1-((5-Phenylpyridin-2-yl)methyl)-1H-indole-7-carboxamido)cyclopropyl)bicyclo[1.1.1]pentane-1-carboxylic acid] | 19 | 0.89 | 
